The values that follow come from patent US20110097264A1, “RADIOLABELING METHOD USING MULTIVALENT GLYCOLIGANDS AS HEPATIC RECEPTOR IMAGING AGENT” (Institute of Nuclear Energy Research Atomic Energy Council, …, priority 2009, published 2011).

The target in this assay is T1, ASGPR (Mus musculus, UniProt P24721+P34927).
T1 construct: host or cells: murine hepatocytes (primary, plated)
T1 sequence (P34927 1-284): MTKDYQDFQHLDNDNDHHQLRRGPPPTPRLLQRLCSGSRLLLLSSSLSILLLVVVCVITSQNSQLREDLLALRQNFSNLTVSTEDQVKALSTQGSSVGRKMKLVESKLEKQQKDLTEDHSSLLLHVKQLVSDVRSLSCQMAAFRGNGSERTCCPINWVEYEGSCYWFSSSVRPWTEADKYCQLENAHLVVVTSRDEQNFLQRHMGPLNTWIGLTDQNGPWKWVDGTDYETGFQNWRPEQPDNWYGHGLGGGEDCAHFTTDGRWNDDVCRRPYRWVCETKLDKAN
T1 sequence (P24721 1-301): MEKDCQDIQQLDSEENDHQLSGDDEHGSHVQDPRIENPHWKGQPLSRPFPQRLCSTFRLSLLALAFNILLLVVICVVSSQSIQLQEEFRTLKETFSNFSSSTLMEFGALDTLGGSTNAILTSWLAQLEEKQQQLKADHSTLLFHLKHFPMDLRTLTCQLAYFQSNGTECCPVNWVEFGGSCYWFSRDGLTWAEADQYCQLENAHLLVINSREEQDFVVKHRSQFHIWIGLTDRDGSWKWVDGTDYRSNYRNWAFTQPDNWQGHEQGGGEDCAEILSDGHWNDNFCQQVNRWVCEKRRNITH
In words: Binding strength of saccharide chain peptide and murine hepatocyte (competition with Eu-ASOR, time-resolved fluorescence). To be noted: for IC50: murine hepatocyte, Eu-ASOR 10 nM, 5 mM calcium chloride, 1 hr. As to the method:
With Eu-asialo-orosomucoid (Eu-ASOR) as reference material, the binding strength of saccharide chain peptide and murine hepatocyte is determined by comparing whether the binding degree of saccharide chain peptides, such as DCM-Lys(ah-GalNAc)3, DCM-Lys(Gah-GalNAc)3, DCM-Lys(ah-Lac)3, AHA-Asp[DCM-Lys(ah-Lac)3]2 with murine hepatocyte is higher than that of Eu-ASOR or not, in which the binding degree is expressed by IC50 (concentration of 50% inhibition), and the lower the IC50 is, the higher the binding degree is. The murine hepatocyte (from Lonza Biotechnology Company, Maryland) is plated in a 24-well plate in advance, and the reaction occurs in each well, into which (i) Eu-ASOR 10 nM (ii) hepatocyte basic medium with 5 mM calcium chloride, and (iii) five different concentrations of saccharide chain peptide of 1 uM-0.8 nM are added. After culturing under shaking for 1 hr, the substance that has not been bound to hepatocyte is removed by washing with the hepatocyte basic medium containing calcium chloride. Time-resolved fluorescence spectroscopy is preformed, that is, an enhancement solution (15
uM β-naphthoyl trifluoroacetone, 50 uM tri-n-octyl-phosphine oxide, 0.1 M potassium hydrogen phthalate, 0.1% Triton X-100 in 0.1 M acetic acid, pH 3.2) is added. The enhancement solution reacts with Eu^3+ to form a Eu chelate, which can emit a light of 615 nm when being excited at 340 nm. With the logarithm of the concentration of saccharide chain peptide as X axis, the emitted fluorescence value as Y axis, the fluorescence value without adding glycopeptide being set as 100%, the IC50 of each saccharide chain peptide can be calculated accordingly.

For the compound `NCCCCCC(=O)N[C@@H](CC(=O)NCCCC[C@@H](C(=O)NCCCCCCOC1O[C@H](CO)[C@@H](O[C@@H]2O[C@H](CO)[C@H](O)[C@H](O)[C@H]2O)[C@H](O)[C@H]1O)N(CC(=O)NCCCCCCOC1O[C@H](CO)[C@@H](O[C@@H]2O[C@H](CO)[C@H](O)[C@H](O)[C@H]2O)[C@H](O)[C@H]1O)CC(=O)NCCCCCCOC1O[C@H](CO)[C@@H](O[C@@H]2O[C@H](CO)[C@H](O)[C@H](O)[C@H]2O)[C@H](O)[C@H]1O)C(=O)NCCCC[C@@H](C(=O)NCCCCCCOC1O[C@H](CO)[C@@H](O[C@@H]2O[C@H](CO)[C@H](O)[C@H](O)[C@H]2O)[C@H](O)[C@H]1O)N(CC(=O)NCCCCCCOC1O[C@H](CO)[C@@H](O[C@@H]2O[C@H](CO)[C@H](O)[C@H](O)[C@H]2O)[C@H](O)[C@H]1O)CC(=O)NCCCCCCOC1O[C@H](CO)[C@@H](O[C@@H]2O[C@H](CO)[C@H](O)[C@H](O)[C@H]2O)[C@H](O)[C@H]1O` (stereo partly drawn) [AHA-Asp[DCM-Lys(ahLac)3]2, AHA-Asp[DCM-Lys(ah-Lac)3]2], the IC50 came to 10 nM. For `CC(=O)N[C@H]1[C@H](OCCCCCCNC(=O)CNC(=O)CN(CC(=O)NCC(=O)NCCCCCCO[C@@H]2O[C@H](CO)[C@H](O)[C@H](O)[C@H]2NC(C)=O)[C@@H](CCCCN)C(=O)NCC(=O)NCCCCCCO[C@@H]2O[C@H](CO)[C@H](O)[C@H](O)[C@H]2NC(C)=O)O[C@H](CO)[C@H](O)[C@@H]1O` [DCM-Lys(GahGalNAc)3], the “binding with ASGPR relative to YEE or YDD” value (compared with YEE or YDD, from Table 1) was found to be 10 times.

As for `CC(=O)N[C@H]1[C@H](OCCCCCCNC(=O)CC[C@H](NC(=O)[C@H](CCC(=O)NCCCCCCO[C@@H]2O[C@H](CO)[C@H](O)[C@H](O)[C@H]2NC(C)=O)NC(=O)[C@@H](N)Cc2ccc(O)cc2)C(=O)NCCCCCCO[C@@H]2O[C@H](CO)[C@H](O)[C@H](O)[C@H]2NC(C)=O)O[C@H](CO)[C@H](O)[C@@H]1O` [YEE(ahGalNAc)3, reference compound], the IC50 worked out at 10 nM.
